Measured values published in patent US20230085307A1, “PYRIDAZINONE COMPOUND AND HERBICIDE” (NISSAN CHEMICAL CORPORATION, priority 2019, published 2023).

Assays:
[1] = system: blackgrass; assay: Test Example 4: herbicidal effect by soil treatment (Table 19, symbol J); format: in vivo, blackgrass (Alopecurus myosuroides); conditions: amount of applied herbicide 320 g/ha
How it was run: (§1)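 Three weeks of greenhouse growth at 25° C. to 30° C. followed a uniform surface spray of water-diluted emulsion at a predetermined herbicide amount. Seeds had been sown beforehand under about 1.5 cm of sterilized diluvial soil. Grading followed criteria set out in an earlier test.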

[2] = system: windgrass; assay: Test Example 4: herbicidal effect by soil treatment (Table 19, symbol L); format: in vivo, windgrass (Apera spica-venti); conditions: amount of applied herbicide 320 g/ha
How it was run: as §1

[3] = system: persian speedwell; assay: Test Example 5: herbicidal effect by foliage application, plastic box (Table 20, symbol R); format: in vivo, Persian speedwell (Veronica persica); conditions: foliage application, 320 g/ha
How it was run: (§2)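 Plants sown in sterilized diluvial soil and grown 14 days in a greenhouse at 25° C to 30° C, then sprayed on the foliage with the compound's emulsion diluted in water to a predetermined herbicide amount. Injury to weeds and crops scored three weeks after application on a visual rating scale.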

[4] = system: southern crabgrass; assay: Test Example 4: herbicidal effect by soil treatment (Table 19, symbol F); format: in vivo, southern crabgrass (Digitaria ciliaris); conditions: amount of applied herbicide 320 g/ha
How it was run: as §1

[5] = system: green foxtail; assay: Test Example 5: herbicidal effect by foliage application, plastic box (Table 20, symbol G); format: in vivo, green foxtail (Setaria viridis); conditions: foliage application, 320 g/ha
How it was run: as §2

[6] = system: false cleavers; assay: Test Example 5: herbicidal effect by foliage application, plastic box (Table 20, symbol Q); format: in vivo, false cleavers (Galium spurium); conditions: foliage application, 320 g/ha
How it was run: as §2

[7] = system: rice flat sedge; assay: Test Example 3: herbicidal effect by foliage application, Wagner pot (Table 18, symbol E); format: in vivo, rice flat sedge (Cyperus iria); conditions: amount of applied herbicide 320 g/ha
How it was run: (§3)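 Plants were sown in alluvial soil held under 0.1–0.5 cm standing water and grown 14 days in a greenhouse at 25–30 °C. An emulsifiable formulation, water-diluted to the set dose, was then sprayed onto the foliage, and effects were scored three weeks later using previously defined criteria.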

[8] = system: southern crabgrass; assay: Test Example 5: herbicidal effect by foliage application, plastic box (Table 20, symbol F); format: in vivo, southern crabgrass (Digitaria ciliaris); conditions: foliage application, 320 g/ha
How it was run: as §2

[9] = system: green foxtail; assay: Test Example 4: herbicidal effect by soil treatment (Table 19, symbol G); format: in vivo, green foxtail (Setaria viridis); conditions: amount of applied herbicide 320 g/ha
How it was run: as §1

[10] = system: chickweed; assay: Test Example 4: herbicidal effect by soil treatment (Table 19, symbol P); format: in vivo, common chickweed (Stellaria media); conditions: amount of applied herbicide 320 g/ha
How it was run: as §1

[11] = system: blackgrass; assay: Test Example 5: herbicidal effect by foliage application, plastic box (Table 20, symbol J); format: in vivo, blackgrass (Alopecurus myosuroides); conditions: foliage application, 320 g/ha
How it was run: as §2

[12] = system: Chinese sprangletop; assay: Test Example 3: herbicidal effect by foliage application, Wagner pot (Table 18, symbol D); format: in vivo, chinese sprangletop (Leptochloa chinensis); conditions: amount of applied herbicide 320 g/ha
How it was run: as §3

[13] = system: velvetleaf; assay: Test Example 4: herbicidal effect by soil treatment (Table 19, symbol M); format: in vivo, velvetleaf (Abutilon theophrasti); conditions: amount of applied herbicide 320 g/ha
How it was run: as §1

[14] = system: barnyard grass; assay: Test Example 5: herbicidal effect by foliage application, plastic box (Table 20, symbol H); format: in vivo, barnyard grass (Echinochloa crus-galli); conditions: foliage application, 320 g/ha
How it was run: as §2

[15] = system: lambsquarters; assay: Test Example 5: herbicidal effect by foliage application, plastic box (Table 20, symbol O); format: in vivo, lambsquarters (Chenopodium album); conditions: foliage application, 320 g/ha
How it was run: as §2

[16] = system: wild oat; assay: Test Example 4: herbicidal effect by soil treatment (Table 19, symbol I); format: in vivo, wild oat (Avena fatua); conditions: amount of applied herbicide 320 g/ha
How it was run: as §1

[17] = system: Italian ryegrass; assay: Test Example 4: herbicidal effect by soil treatment (Table 19, symbol K); format: in vivo, Italian ryegrass (Lolium multiflorum); conditions: amount of applied herbicide 320 g/ha
How it was run: as §1

[18] = system: Italian ryegrass; assay: Test Example 5: herbicidal effect by foliage application, plastic box (Table 20, symbol K); format: in vivo, Italian ryegrass (Lolium multiflorum); conditions: foliage application, 320 g/ha
How it was run: as §2

[19] = system: lambsquarters; assay: Test Example 4: herbicidal effect by soil treatment (Table 19, symbol O); format: in vivo, lambsquarters (Chenopodium album); conditions: amount of applied herbicide 320 g/ha
How it was run: as §1

[20] = system: barnyard grass; assay: Test Example 4: herbicidal effect by soil treatment (Table 19, symbol H); format: in vivo, barnyard grass (Echinochloa crus-galli); conditions: amount of applied herbicide 320 g/ha
How it was run: as §1

[21] = system: false cleavers; assay: Test Example 4: herbicidal effect by soil treatment (Table 19, symbol Q); format: in vivo, false cleavers (Galium spurium); conditions: amount of applied herbicide 320 g/ha
How it was run: as §1

[22] = system: redroot pigweed; assay: Test Example 5: herbicidal effect by foliage application, plastic box (Table 20, symbol N); format: in vivo, redroot pigweed (Amaranthus retroflexus); conditions: foliage application, 320 g/ha
How it was run: as §2

[23] = system: wild oat; assay: Test Example 5: herbicidal effect by foliage application, plastic box (Table 20, symbol I); format: in vivo, wild oat (Avena fatua); conditions: foliage application, 320 g/ha
How it was run: as §2

[24] = system: windgrass; assay: Test Example 5: herbicidal effect by foliage application, plastic box (Table 20, symbol L); format: in vivo, windgrass (Apera spica-venti); conditions: foliage application, 320 g/ha
How it was run: as §2

[25] = system: velvetleaf; assay: Test Example 5: herbicidal effect by foliage application, plastic box (Table 20, symbol M); format: in vivo, velvetleaf (Abutilon theophrasti); conditions: foliage application, 320 g/ha
How it was run: as §2

[26] = system: chickweed; assay: Test Example 5: herbicidal effect by foliage application, plastic box (Table 20, symbol P); format: in vivo, common chickweed (Stellaria media); conditions: foliage application, 320 g/ha
How it was run: as §2

[27] = system: redroot pigweed; assay: Test Example 4: herbicidal effect by soil treatment (Table 19, symbol N); format: in vivo, redroot pigweed (Amaranthus retroflexus); conditions: amount of applied herbicide 320 g/ha
How it was run: as §1

[28] = system: persian speedwell; assay: Test Example 4: herbicidal effect by soil treatment (Table 19, symbol R); format: in vivo, Persian speedwell (Veronica persica); conditions: amount of applied herbicide 320 g/ha
How it was run: as §1

[29] = system: barnyard grass; assay: Test Example 3: herbicidal effect by foliage application, Wagner pot (Table 18, symbol H); format: in vivo, barnyard grass (Echinochloa crus-galli); conditions: amount of applied herbicide 320 g/ha
How it was run: as §3

[30] = evaluated three weeks after application

COc1ccc(F)cc1-c1sc2ccc(C)cc2c1-c1c(O)c(C)nn(C)c1=O [2-150]
J: blackgrass, herbicidal effect rating [1]: 0 (Herbicidal rate of 5% or less (almost no effect))
L: windgrass, herbicidal effect rating [2]: 0 (Herbicidal rate of 5% or less (almost no effect))
herbicidal effect on R: persian speedwell (criteria 0-5) [3, 30]: 5 (Herbicidal rate of 90% or more (almost completely withered))
F: southern crabgrass, herbicidal effect rating [4]: 0 (Herbicidal rate of 5% or less (almost no effect))
herbicidal effect on G: green foxtail (criteria 0-5) [5, 30]: 0 (Herbicidal rate of 5% or less (almost no effect))
herbicidal effect on Q: false cleavers (criteria 0-5) [6, 30]: 4 (Herbicidal rate of 70% or more and less than 90%)
herbicidal effect on E: rice flat sedge [7]: 5 (Herbicidal rate of 90% or more (almost completely withered))
herbicidal effect on F: southern crabgrass (criteria 0-5) [8, 30]: 0 (Herbicidal rate of 5% or less (almost no effect))
G: green foxtail, herbicidal effect rating [9]: 0 (Herbicidal rate of 5% or less (almost no effect))
P: chickweed, herbicidal effect rating [10]: 4 (Herbicidal rate of 70% or more and less than 90%)
herbicidal effect on J: blackgrass (criteria 0-5) [11, 30]: 4 (Herbicidal rate of 70% or more and less than 90%)
herbicidal effect on D: Chinese sprangletop [12]: 2 (Herbicidal rate of 20% or more and less than 40%)
M: velvetleaf, herbicidal effect rating [13]: 1 (Herbicidal rate of 5% or more and less than 20%)
herbicidal effect on H: barnyard grass (criteria 0-5) [14, 30]: 0 (Herbicidal rate of 5% or less (almost no effect))
herbicidal effect on O: lambsquarters (criteria 0-5) [15, 30]: 3 (Herbicidal rate of 40% or more and less than 70%)
I: wild oat, herbicidal effect rating [16]: 0 (Herbicidal rate of 5% or less (almost no effect))
K: Italian ryegrass, herbicidal effect rating [17]: 0 (Herbicidal rate of 5% or less (almost no effect))
herbicidal effect on K: Italian ryegrass (criteria 0-5) [18, 30]: 3 (Herbicidal rate of 40% or more and less than 70%)
O: lambsquarters, herbicidal effect rating [19]: 2 (Herbicidal rate of 20% or more and less than 40%)
H: barnyard grass, herbicidal effect rating [20]: 0 (Herbicidal rate of 5% or less (almost no effect))
Q: false cleavers, herbicidal effect rating [21]: 0 (Herbicidal rate of 5% or less (almost no effect))
herbicidal effect on N: redroot pigweed (criteria 0-5) [22, 30]: 5 (Herbicidal rate of 90% or more (almost completely withered))
herbicidal effect on I: wild oat (criteria 0-5) [23, 30]: 1 (Herbicidal rate of 5% or more and less than 20%)
herbicidal effect on L: windgrass (criteria 0-5) [24, 30]: 3 (Herbicidal rate of 40% or more and less than 70%)
herbicidal effect on M: velvetleaf (criteria 0-5) [25, 30]: 4 (Herbicidal rate of 70% or more and less than 90%)
herbicidal effect on P: chickweed (criteria 0-5) [26, 30]: 5 (Herbicidal rate of 90% or more (almost completely withered))
N: redroot pigweed, herbicidal effect rating [27]: 3 (Herbicidal rate of 40% or more and less than 70%)
R: persian speedwell, herbicidal effect rating [28]: 5 (Herbicidal rate of 90% or more (almost completely withered))
herbicidal effect on H: barnyard grass [29]: 4 (Herbicidal rate of 70% or more and less than 90%)

Cc1nn(C)c(=O)c(-c2c(-c3ccc(F)cc3)sc3cc(F)ccc23)c1O [3-001]
herbicidal effect, J: blackgrass [1]: 3 (Herbicidal rate of 40% or more and less than 70%)
herbicidal effect, L: windgrass [2]: 4 (Herbicidal rate of 70% or more and less than 90%)
R: persian speedwell, herbicidal effect grade ([3]; three weeks after application): 5 (Herbicidal rate of 90% or more (almost completely withered))
herbicidal effect, F: southern crabgrass [4]: 5 (Herbicidal rate of 90% or more (almost completely withered))
G: green foxtail, herbicidal effect grade ([5]; three weeks after application): 5 (Herbicidal rate of 90% or more (almost completely withered))
Q: false cleavers, herbicidal effect grade ([6]; three weeks after application): 5 (Herbicidal rate of 90% or more (almost completely withered))
herbicidal effect on E: rice flat sedge [7]: 5 (Herbicidal rate of 90% or more (almost completely withered))
F: southern crabgrass, herbicidal effect grade ([8]; three weeks after application): 5 (Herbicidal rate of 90% or more (almost completely withered))
herbicidal effect, G: green foxtail [9]: 4 (Herbicidal rate of 70% or more and less than 90%)
herbicidal effect, P: chickweed [10]: 5 (Herbicidal rate of 90% or more (almost completely withered))
J: blackgrass, herbicidal effect grade ([11]; three weeks after application): 5 (Herbicidal rate of 90% or more (almost completely withered))
herbicidal effect on D: Chinese sprangletop [12]: 5 (Herbicidal rate of 90% or more (almost completely withered))
herbicidal effect, M: velvetleaf [13]: 0 (Herbicidal rate of 5% or less (almost no effect))
H: barnyard grass, herbicidal effect grade ([14]; three weeks after application): 5 (Herbicidal rate of 90% or more (almost completely withered))
O: lambsquarters, herbicidal effect grade ([15]; three weeks after application): 5 (Herbicidal rate of 90% or more (almost completely withered))
herbicidal effect, I: wild oat [16]: 4 (Herbicidal rate of 70% or more and less than 90%)
herbicidal effect, K: Italian ryegrass [17]: 5 (Herbicidal rate of 90% or more (almost completely withered))
K: Italian ryegrass, herbicidal effect grade ([18]; three weeks after application): 5 (Herbicidal rate of 90% or more (almost completely withered))
herbicidal effect, O: lambsquarters [19]: 5 (Herbicidal rate of 90% or more (almost completely withered))
herbicidal effect, H: barnyard grass [20]: 4 (Herbicidal rate of 70% or more and less than 90%)
herbicidal effect, Q: false cleavers [21]: 3 (Herbicidal rate of 40% or more and less than 70%)
N: redroot pigweed, herbicidal effect grade ([22]; three weeks after application): 5 (Herbicidal rate of 90% or more (almost completely withered))
I: wild oat, herbicidal effect grade ([23]; three weeks after application): 5 (Herbicidal rate of 90% or more (almost completely withered))
L: windgrass, herbicidal effect grade ([24]; three weeks after application): 5 (Herbicidal rate of 90% or more (almost completely withered))
M: velvetleaf, herbicidal effect grade ([25]; three weeks after application): 5 (Herbicidal rate of 90% or more (almost completely withered))
P: chickweed, herbicidal effect grade ([26]; three weeks after application): 5 (Herbicidal rate of 90% or more (almost completely withered))
herbicidal effect, N: redroot pigweed [27]: 5 (Herbicidal rate of 90% or more (almost completely withered))
herbicidal effect, R: persian speedwell [28]: 4 (Herbicidal rate of 70% or more and less than 90%)
herbicidal effect on H: barnyard grass [29]: 5 (Herbicidal rate of 90% or more (almost completely withered))
